# Source: ChEMBL document CHEMBL1151280, “ent-Kaurane Diterpenoids from Isodon albopilosus” (J Nat Prod, 2005)
# Tested on: HepG2
# Experiment: Cytotoxicity against human HepG2 cells after 24 hrs by Alamar blue assay
# Type: functional, cell-based
# Conditions: not given
row,Compound,Activity
1,CC(=O)OC[C@@]1(C)CCC[C@]2(C)[C@@H]1C[C@@H](O)[C@@]13C(=O)[C@H](CO)[C@@H]([C@H]1O)[C@@H](O)C[C@@H]23,Not toxic
2,C[C@H]1C(=O)[C@@]23[C@H](O)C[C@@H]4[C@@](C)(CO[C@@H]5O[C@H](CO)[C@@H](O)[C@H](O)[C@H]5O)CCC[C@@]4(C)[C@@H]2C[C@H](O)[C@@H]1[C@H]3O,Not toxic
3,C=C1[C@@H](OC(C)=O)[C@@]23[C@H](O)C[C@@H]4[C@@](C)(CO)CCC[C@@]4(C)[C@@H]2CC[C@@H]1[C@H]3O,Not toxic
4,C=C1[C@H]2[C@@H](O)[C@@]3([C@H](O)C[C@H]4[C@@](C)(CCC[C@]4(C)C=O)[C@@H]3C[C@@H]2O)[C@@H]1OC(C)=O,Not toxic
5,C=C1C(=O)[C@@]23[C@H](O)C[C@H]4[C@@](C)(CCC[C@]4(C)C(=O)O)[C@@H]2CC[C@@H]1[C@H]3O,Not toxic
6,C[C@@H]1[C@@H]2C(=O)C[C@H]3[C@]4(C)CCC[C@](C)(CO)[C@H]4C[C@@H](O)[C@@]3([C@@H]1O)[C@@H]2O,Not toxic
7,C=C1[C@H]2[C@@H](O)[C@@]3([C@H](O)C[C@@H]4[C@@](C)(CO)CCC[C@@]4(C)[C@@H]3C[C@@H]2O)[C@@H]1OC(C)=O,Not toxic
8,C[C@H]1C(=O)[C@@]23[C@H](O)C[C@H]4[C@@](C)(CCC[C@]4(C)C(=O)O)[C@@H]2C[C@H](O)[C@@H]1[C@H]3O,Not toxic
9,C=C1C(=O)[C@@]23[C@H](O)C[C@H]4[C@@](C)(CCC[C@]4(C)C(=O)O)[C@@H]2C[C@H](O)[C@@H]1[C@H]3O,Not toxic
10,C=C1C[C@@]23[C@H](O)C[C@@H]4[C@@](C)(CO)CCC[C@@]4(C)[C@@H]2C[C@H](O)[C@@H]1[C@H]3O,Not toxic

# Same assay, conditions: HepG2, 24 h
row,Compound,IC50 [µM]
1,C=C1C(=O)[C@@]23[C@H](O)C[C@H]4[C@@](C)(CCC[C@]4(C)C=O)[C@@H]2C[C@H](O)[C@@H]1[C@H]3O [MACROCALYXIN C],30.8
2,C=C1C(=O)[C@@]23[C@H](O)C[C@@H]4[C@@](C)(CO)CCC[C@@]4(C)[C@@H]2C[C@H](O)[C@@H]1[C@H]3O [RABDOKUNMIN C],42.1
3,C=C1C(=O)[C@@]23[C@H](O)C[C@@H]4[C@@](C)(COC(C)=O)CCC[C@@]4(C)[C@@H]2C[C@H](O)[C@@H]1[C@H]3O [ALBOPILOSIN A],24.9
4,C=C1C(=O)[C@@]23[C@H](O)C[C@H]4[C@@](C)(CCC[C@]4(C)C=O)[C@@H]2CC[C@@H]1[C@H]3O [ALBOPILOSIN H],13.3
5,C=C1C(=O)[C@@]23[C@H](O)C[C@@H]4[C@@](C)(CO)CCC[C@@]4(C)[C@@H]2CC[C@@H]1[C@H]3O [EXCISANIN C],13.2
